{
  "source": "paper PMC3668458",
  "about": "(Journal of neuroscience research, 2011)",
  "target": "α4β2 nicotinic acetylcholine receptor (α4 subunit) (Homo sapiens, UniProt P17787+P43681)",
  "sequence (P43681 27-627)": "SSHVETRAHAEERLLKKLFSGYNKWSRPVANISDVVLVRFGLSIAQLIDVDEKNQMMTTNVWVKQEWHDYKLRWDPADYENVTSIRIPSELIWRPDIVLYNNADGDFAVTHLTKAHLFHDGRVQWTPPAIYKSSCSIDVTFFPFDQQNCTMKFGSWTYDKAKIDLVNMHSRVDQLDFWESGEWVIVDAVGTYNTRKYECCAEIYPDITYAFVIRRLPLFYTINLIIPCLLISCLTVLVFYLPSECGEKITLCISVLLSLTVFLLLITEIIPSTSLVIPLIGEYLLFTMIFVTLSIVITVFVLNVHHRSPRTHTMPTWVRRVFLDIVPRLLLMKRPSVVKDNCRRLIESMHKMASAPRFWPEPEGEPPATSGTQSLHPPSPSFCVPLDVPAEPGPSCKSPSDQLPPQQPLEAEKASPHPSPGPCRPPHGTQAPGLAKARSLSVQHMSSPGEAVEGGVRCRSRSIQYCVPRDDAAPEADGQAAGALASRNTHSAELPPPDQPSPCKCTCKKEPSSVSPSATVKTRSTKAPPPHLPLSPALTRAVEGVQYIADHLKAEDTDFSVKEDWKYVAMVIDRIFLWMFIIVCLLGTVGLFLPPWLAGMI",
  "sequence (P17787 26-502)": "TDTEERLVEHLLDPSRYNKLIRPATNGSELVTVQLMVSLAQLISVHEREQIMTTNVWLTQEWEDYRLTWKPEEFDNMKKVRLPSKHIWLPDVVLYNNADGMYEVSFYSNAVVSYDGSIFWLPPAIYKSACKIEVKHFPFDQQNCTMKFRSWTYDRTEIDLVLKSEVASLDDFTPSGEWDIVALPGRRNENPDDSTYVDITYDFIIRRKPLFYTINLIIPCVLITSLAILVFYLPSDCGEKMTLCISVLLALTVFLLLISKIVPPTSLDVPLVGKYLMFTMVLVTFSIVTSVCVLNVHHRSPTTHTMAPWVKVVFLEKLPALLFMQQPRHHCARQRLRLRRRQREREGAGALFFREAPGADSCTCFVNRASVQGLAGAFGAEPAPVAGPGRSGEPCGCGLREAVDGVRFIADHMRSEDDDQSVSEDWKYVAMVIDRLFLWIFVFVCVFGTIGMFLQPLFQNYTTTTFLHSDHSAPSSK",
  "test": "whole-cell patch clamp, Schild plot analysis of inhibition of ACh currents",
  "type": "cell-based",
  "data": [
    {"compound": "O=[N+]([O-])NC1=NCCN1Cc1ccc(Cl)nc1", "note": "[IMI, imidacloprid]", "values": [
      {"measurement": "Kb", "value": "18.2 ± 0.9", "unit": "µM"}
    ]}
  ]
}
